pIC50: −log10 of the molar value.

The values that follow come from patent US10772893B2, “2-(morpholin-4-yl)-1,7-naphthyridines” (BAYER PHARMA AKTIENGESELLSCHAFT, priority 2014, dated 2020).

The subject of one experiment is HeLa cells. The experiment in a line: Proliferation assay, crystal violet staining. As to conditions: Homo sapiens, 96 h, read-out: Inhibition of HeLa cell proliferation.
Procedure: After 24 hours, the cells of one plate (zero plate) were dyed with crystal violet (see below), whereas the medium of the other plates was replaced with fresh culture medium (200 μl) to which the test substances were added in various concentrations (0 μM, and also in the range of 0.001-10 μM; the final concentration of the solvent dimethyl sulphoxide was 0.1 or 0.5%). The cells were incubated for 4 days in the presence of the test substances. […] After washing the fixed cells three times with water, the plates were dried at room temperature. The cells were stained by adding 100 μl/measurement point of a 0.1% strength crystal violet solution (pH adjusted to pH 3 by adding acetic acid). After washing the cells three times with water, the plates were dried at room temperature. The dye was dissolved by adding 100 μl/measurement point of a 10% strength acetic acid solution. […] The percentage change in cell growth was calculated by normalizing the measured values to the absorbance values of the zero plate (=0%) and the absorbance of the untreated (0 W) cells (=100%). The IC50 values were determined by means of a four parameter fit.
In the case of `CCOP(=O)(CC(C)C)c1cc(N2CCOC[C@H]2C)nc2c(-c3ccn[nH]3)nccc12` (stereo partly drawn) [Example 144, ethyl isobutyl{2-[(3R)-3-methylmorpholin-4-yl]-8-(1H-pyrazol-5-yl)-1,7-naphthyridin-4-yl}phosphinate], the pIC50 is less than 5.52.

The experiment is the same for the next values; noted with them: Homo sapiens, 96 h, read-out: Inhibition of HeLa cell proliferation, HeLa cells, 4 days incubation.
For `COCc1noc(C)c1-c1cc(N2CCOC[C@H]2C)nc2c(-c3ccn[nH]3)nccc12` [Example 135, 4-[3-(methoxymethyl)-5-methyl-1,2-oxazol-4-yl]-2-[(3R)-3-methylmorpholin-4-yl]-8-(1H-pyrazol-5-yl)-1,7-naphthyridine], the pIC50 is 5.74.
For the compound `Cc1nnc(-c2cc(N3CCOC[C@H]3C)nc3c(-c4ccn[nH]4)nccc23)o1` [Example 136, 2-[(3R)-3-methylmorpholin-4-yl]-4-(5-methyl-1,3,4-oxadiazol-2-yl)-8-(1H-pyrazol-5-yl)-1,7-naphthyridine], the pIC50 was 6.24.
In the case of `C[C@@H]1COCCN1c1cc(N=S(C)(=O)c2ccc(F)cc2)c2ccnc(-c3ccn[nH]3)c2n1` (stereo partly drawn) [Example 138, 4-{[(4-fluorophenyl)(methyl)oxido-λ^6-sulfanylidene]amino}-2-[(3R)-3-methylmorpholin-4-yl]-8-(1H-pyrazol-5-yl)-1,7-naphthyridine], the pIC50 is 6.21.
As for `C[C@@H]1COCCN1c1cc(N=S(C)(=O)c2ccccc2F)c2ccnc(-c3ccn[nH]3)c2n1` (stereo partly drawn) [Example 139, 4-{[(2-fluorophenyl)(methyl)oxido-λ^6-sulfanylidene]amino}-2-[(3R)-3-methylmorpholin-4-yl]-8-(1H-pyrazol-5-yl)-1,7-naphthyridine], the pIC50 was 5.86.
Take `C[C@@H]1COCCN1c1cc(P(C)(C)=O)c2ccnc(-c3ccn[nH]3)c2n1` [Example 142, 4-(dimethylphosphoryl)-2-[(3R)-3-methylmorpholin-4-yl]-8-(1H-pyrazol-5-yl)-1,7-naphthyridine]: the pIC50 was 5.80.
As for `CCP(=O)(CC)c1cc(N2CCOC[C@H]2C)nc2c(-c3ccn[nH]3)nccc12` [Example 143, 4-(diethylphosphoryl)-2-[(3R)-3-methylmorpholin-4-yl]-8-(1H-pyrazol-5-yl)-1,7-naphthyridine], the pIC50 is 6.27.
`CC(C)Cn1nccc1-c1cc(N2CCOC[C@H]2C)nc2c(-c3ccn[nH]3)nccc12` [Example 146, 4-(1-isobutyl-1H-pyrazol-5-yl)-2-[(3R)-3-methylmorpholin-4-yl]-8-(1H-pyrazol-5-yl)-1,7-naphthyridine]: the pIC50 was 5.95.
In the case of `C[C@@H]1COCCN1c1cc(-c2cnc(S(C)(=O)=O)c(F)c2)c2ccnc(-c3ccn[nH]3)c2n1` [Example 147, 4-[5-fluoro-6-(methylsulfonyl)pyridin-3-yl]-2-[(3R)-3-methylmorpholin-4-yl]-8-(1H-pyrazol-5-yl)-1,7-naphthyridine], the pIC50 was 6.02.
Consider `C[C@@H]1COCCN1c1cc(N2CCOCC2)nc2c(-c3ccn[nH]3)nccc12` [Example 148, 4-[(3R)-3-methylmorpholin-4-yl]-2-(morpholin-4-yl)-8-(1H-pyrazol-5-yl)-1,7-naphthyridine], for which the pIC50 was 6.09.
Turning to `C[C@@H]1COCCN1c1cc(-c2cccc(F)n2)c2ccnc(-c3ccn[nH]3)c2n1` [Example 152, 4-(6-fluoropyridin-2-yl)-2-[(3R)-3-methylmorpholin-4-yl]-8-(1H-pyrazol-5-yl)-1,7-naphthyridine], the pIC50 is 6.17.
The same measure, in the same setting: in the case of `CCn1cnc(-c2cc(N3CCOC[C@H]3C)nc3c(-c4ccn[nH]4)nccc23)c1` [Example 153, 4-(1-ethyl-1H-imidazol-4-yl)-2-[(3R)-3-methylmorpholin-4-yl]-8-(1H-pyrazol-5-yl)-1,7-naphthyridine] it was 6.12; in that of `C[C@@H]1COCCN1c1cc(-c2cccnc2N)c2ccnc(-c3ccn[nH]3)c2n1` [Example 155, 3-{2-[(3R)-3-methylmorpholin-4-yl]-8-(1H-pyrazol-5-yl)-1,7-naphthyridin-4-yl}pyridin-2-amine], 6.02.
For the compound `C[C@@H]1COCCN1c1cc(-c2ccn(CCF)n2)c2ccnc(-c3ccn[nH]3)c2n1` [Example 158, 4-[1-(2-fluoroethyl)-1H-pyrazol-3-yl]-2-[(3R)-3-methylmorpholin-4-yl]-8-(1H-pyrazol-5-yl)-1,7-naphthyridine], the pIC50 was 6.48.
On to `C[C@@H]1COCCN1c1cc(-c2ccnn2CCF)c2ccnc(-c3ccn[nH]3)c2n1` [Example 159, 4-[1-(2-fluoroethyl)-1H-pyrazol-5-yl]-2-[(3R)-3-methylmorpholin-4-yl]-8-(1H-pyrazol-5-yl)-1,7-naphthyridine], for which the pIC50 was 7.21.
With `C[C@@H]1COCCN1c1cc(-c2ccn(CCO)n2)c2ccnc(-c3ccn[nH]3)c2n1` [Example 160, 2-(3-{2-[(3R)-3-methylmorpholin-4-yl]-8-(1H-pyrazol-5-yl)-1,7-naphthyridin-4-yl}-1H-pyrazol-1-yl)ethanol], the pIC50 was 6.35.
For `C[C@@H]1COCCN1c1cc(-c2ccn(CC(C)(C)O)n2)c2ccnc(-c3ccn[nH]3)c2n1` [Example 161, 2-methyl-1-(3-{2-[(3R)-3-methylmorpholin-4-yl]-8-(1H-pyrazol-5-yl)-1,7-naphthyridin-4-yl}-1H-pyrazol-1-yl)propan-2-ol], the pIC50 was 6.23.
Turning to `C[C@@H]1CN(c2cc(N3CCOCC3)nc3c(-c4ccn[nH]4)nccc23)CCO1` [Example 162, 4-[(2R)-2-methylmorpholin-4-yl]-2-(morpholin-4-yl)-8-(1H-pyrazol-5-yl)-1,7-naphthyridine], the pIC50 is 5.91.
Take `C[C@H]1CN(c2cc(N3CCOCC3)nc3c(-c4ccn[nH]4)nccc23)CCO1` [Example 170, 4-[(2S)-2-methylmorpholin-4-yl]-2-(morpholin-4-yl)-8-(1H-pyrazol-5-yl)-1,7-naphthyridine]: the pIC50 is 5.62.
On to `C[C@@H]1COCCN1c1cc(OC(F)F)c2ccnc(-c3ccn[nH]3)c2n1` [Example 172, 4-(difluoromethoxy)-2-[(3R)-3-methylmorpholin-4-yl]-8-(1H-pyrazol-5-yl)-1,7-naphthyridine], for which the pIC50 was 5.68.
On to `CC(C)(O)c1cc(N2CCOCC2)nc2c(-c3ccn[nH]3)nccc12` [Example 173, 2-[2-(morpholin-4-yl)-8-(1H-pyrazol-5-yl)-1,7-naphthyridin-4-yl]propan-2-ol], for which the pIC50 was less than 5.52.
The same measure, in the same setting: in the case of `O=C1CN(c2cc(N3CCOCC3)nc3c(-c4ccn[nH]4)nccc23)CCN1` [Example 176, 4-[2-(morpholin-4-yl)-8-(1H-pyrazol-5-yl)-1,7-naphthyridin-4-yl]piperazin-2-one] it was 5.60; in that of `CP(C)(=O)c1cc(N2CCOCC2)nc2c(-c3ccn[nH]3)nccc12` [Example 177, 4-(dimethylphosphoryl)-2-(morpholin-4-yl)-8-(1H-pyrazol-5-yl)-1,7-naphthyridine], less than 5.52; in that of `C[C@@H]1CN(c2cc(N3CCOCC3)nc3c(-c4ccn[nH]4)nccc23)C[C@H](C)N1` [Example 179, 4-[(cis)-3,5-dimethylpiperazin-1-yl]-2-(morpholin-4-yl)-8-(1H-pyrazol-5-yl)-1,7-naphthyridine], less than 5.52.
With `c1cc(-c2nccc3c(N4C[C@@H]5C[C@H]4CO5)cc(N4CCOCC4)nc23)[nH]n1` [Example 185, 2-(morpholin-4-yl)-4-[(1S,4S)-2-oxa-5-azabicyclo[2.2.1]hept-5-yl]-8-(1H-pyrazol-5-yl)-1,7-naphthyridine], the pIC50 was less than 5.52.
The same measure, in the same setting: in the case of `CSCc1cc(N2CCOC[C@H]2C)nc2c(-c3ccn[nH]3)nccc12` [Example 186, 2-[(3R)-3-methylmorpholin-4-yl]-4-[(methylsulfanyl)methyl]-8-(1H-pyrazol-5-yl)-1,7-naphthyridine] it was 6.10.
On to `C[C@@H]1COCCN1c1cc(C2(O)CCCCC2)c2ccnc(-c3ccn[nH]3)c2n1` [Example 189, 1-{2-[(3R)-3-methylmorpholin-4-yl]-8-(1H-pyrazol-5-yl)-1,7-naphthyridin-4-yl}cyclohexanol], for which the pIC50 is 6.00.
Regarding `CS(=O)(=NC#N)c1ccc(-c2cc(N3CCOCC3)nc3c(-c4ccn[nH]4)nccc23)cc1` (centres unmarked) [Example 191, (methyl{4-[2-(morpholin-4-yl)-8-(1H-pyrazol-5-yl)-1,7-naphthyridin-4-yl]phenyl}oxido-λ^6-sulfanylidene)cyanamide], the pIC50 was 5.67.
As to `C[C@@H]1COCCN1c1cc(-c2[nH]nnc2C2CC2)c2ccnc(-c3ccn[nH]3)c2n1` [Example 194, 4-(4-cyclopropyl-1H-1,2,3-triazol-5-yl)-2-[(3R)-3-methylmorpholin-4-yl]-8-(1H-pyrazol-5-yl)-1,7-naphthyridine], the pIC50 was 6.05.
`CC[S+]([O-])c1cc(N2CCOCC2)nc2c(-c3ccn[nH]3)nccc12` (centres unmarked) [Example 195, 4-ethylsulfinyl-2-(morpholin-4-yl)-8-(1H-pyrazol-5-yl)-1,7-naphthyridine]: the pIC50 is 5.52.
Take `O=S(=O)(c1ccccc1)c1cc(N2CCOCC2)nc2c(-c3ccn[nH]3)nccc12` [Example 198, 2-(morpholin-4-yl)-4-(phenylsulfonyl)-8-(1H-pyrazol-5-yl)-1,7-naphthyridine]: the pIC50 was less than 5.52.
Same read-out and setting: to `CCS(=O)(=O)c1cc(N2CCOCC2)nc2c(-c3ccn[nH]3)nccc12` [Example 200, 4-(ethylsulfonyl)-2-(morpholin-4-yl)-8-(1H-pyrazol-5-yl)-1,7-naphthyridine] belongs 5.71; to `[O-][S+](c1ccccc1)c1cc(N2CCOCC2)nc2c(-c3ccn[nH]3)nccc12` (centres unmarked) [Example 201, 2-(morpholin-4-yl)-4-(phenylsulfinyl)-8-(1H-pyrazol-5-yl)-1,7-naphthyridine], less than 5.52; to `C[S+]([O-])c1cc(N2CCOCC2)nc2c(-c3ccn[nH]3)nccc12` (centres unmarked) [Example 202, 4-(methylsulfinyl)-2-(morpholin-4-yl)-8-(1H-pyrazol-5-yl)-1,7-naphthyridine], 5.82.
`C[C@@H]1COCCN1c1cc(C2CC[S+]([O-])CC2)c2ccnc(-c3ccn[nH]3)c2n1` (stereo partly drawn) [Example 203, 2-[(3R)-3-methylmorpholin-4-yl]-4-[1-oxidotetrahydro-2H-thiopyran-4-yl]-8-(1H-pyrazol-5-yl)-1,7-naphthyridine]: the pIC50 is 6.00.
